{"source": "patent US20150105252A1", "about": "“SUBSTITUTED PYRAZOLES AS HERBICIDES” (E I DU PONT DE NEMOURS AND COMPANY, priority 2013, published 2015)", "key": {"ryegrass, Italian": {"tested_on": "ryegrass, Italian", "experiment": "Test C postemergence", "assay_type": "in vivo, Lolium multiflorum", "method_in_brief": "(§1)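 Visual control ratings on a 0–100 scale (100 = complete control) made against untreated controls after 13 to 15 days in greenhouse. Compounds applied in surfactant-containing solvent mixture, either preemergence to loam/sand-sown seeds or postemergence to 1- to 4-leaf plants (2–18 cm) in peat medium.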"}, "blackgrass": {"tested_on": "blackgrass", "experiment": "Test C preemergence", "assay_type": "in vivo, Alopecurus myosuroides", "details": "for Blackgrass plant response rating: scale 0 to 100 (0 no effect, 100 complete control)", "method_in_brief": "as §1"}, "soybean": {"tested_on": "soybean", "experiment": "Test C preemergence", "assay_type": "in vivo, Glycine max", "details": "for Soybean plant response rating: scale 0 to 100 (0 no effect, 100 complete control)", "method_in_brief": "as §1"}, "chickweed": {"tested_on": "chickweed", "experiment": "Test C postemergence", "assay_type": "in vivo, Stellaria media", "method_in_brief": "as §1"}, "morningglory": {"tested_on": "morningglory", "experiment": "Test A preemergence", "assay_type": "in vivo, Ipomoea spp.", "details": "preemergence", "method_in_brief": "(§2)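 Ratings express plant response from 0 (no effect) to 100 (complete control), judged visually against untreated controls after approximately 10 days in the greenhouse. Preemergence applications were made as directed soil sprays onto seeded loam–sand mix, and postemergence applications onto 2–10 cm plants at one- to two-leaf stage.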"}, "corn": {"tested_on": "corn", "experiment": "Test C postemergence", "assay_type": "in vivo, Zea mays", "method_in_brief": "as §1"}, "pigweed": {"tested_on": "pigweed", "experiment": "Test C postemergence", "assay_type": "in vivo, Amaranthus retroflexus", "method_in_brief": "as §1"}, "crabgrass, large": {"tested_on": "crabgrass, large", "experiment": "Test C postemergence", "assay_type": "in vivo, Digitaria sanguinalis", "method_in_brief": "as §1"}, "barnyardgrass [1]": {"tested_on": "barnyardgrass", "experiment": "Test A postemergence", "assay_type": "in vivo, Echinochloa crus-galli", "method_in_brief": "as §2"}, "ducksalad": {"tested_on": "ducksalad", "experiment": "Test B flood", "assay_type": "in vivo, Heteranthera limosa", "details": "250 g ai/ha, visual rating on 0 to 100 scale (0 no effect, 100 complete control), 13 to 15 days", "method_in_brief": "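Visual ratings (0 = no effect, 100 = complete control) versus untreated controls were taken 13–15 days after treatment of greenhouse plants. Treatment was added to paddy water held at 3 cm depth on 2-leaf-stage seedlings.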"}, "barnyardgrass [2]": {"tested_on": "barnyardgrass", "experiment": "Test C preemergence", "assay_type": "in vivo, Echinochloa crus-galli", "details": "for Barnyardgrass plant response rating: scale 0 to 100 (0 no effect, 100 complete control)", "method_in_brief": "as §1"}, "lambsquarters": {"tested_on": "lambsquarters", "experiment": "Test C preemergence", "assay_type": "in vivo, Chenopodium album", "details": "for Lambsquarters plant response rating: scale 0 to 100 (0 no effect, 100 complete control)", "method_in_brief": "as §1"}, "johnsongrass": {"tested_on": "johnsongrass", "experiment": "Test C preemergence", "assay_type": "in vivo, Sorghum halepense", "details": "for Johnsongrass plant response rating: scale 0 to 100 (0 no effect, 100 complete control)", "method_in_brief": "as §1"}, "[3]": {"details": "Postemergence, 31 g ai/ha, visually evaluated after 13 to 15 days"}, "[4]": {"details": "postemergence, 62 g ai/ha, scale 0 to 100"}, "[5]": {"details": "postemergence, 250 g ai/ha, scale 0 to 100 (0 no effect, 100 complete control)"}, "[6]": {"details": "postemergence, 125 g ai/ha, scale 0 to 100, 0 no effect, 100 complete control"}, "[7]": {"details": "preemergence, 31 g ai/ha, visual rating, 13 to 15 days"}, "[8]": {"details": "preemergence, 62 g ai/ha, 13 to 15 days"}, "[9]": {"details": "preemergence, 125 g ai/ha, 13 to 15 days, scale 0 to 100, 0 = no effect, 100 = complete control"}}, "data": [{"molecule": "CCONC(=O)c1cc(CC)n(Cc2ccnc(OC(F)F)c2)n1", "note": "[Compound 131]", "values": [{"measurement": "Plant response rating (scale of 0 to 100 where 0 is no effect and 100 is complete control), Ryegrass, Italian", "setting": "ryegrass, Italian; [3]", "result": 5}, {"measurement": "Ryegrass, Italian plant response rating", "setting": "ryegrass, Italian; [4]", "result": 5}, {"measurement": "Plant response rating, Ryegrass, Italian", "setting": "ryegrass, Italian; [5]", "result": 10}, {"measurement": "Plant response rating, Ryegrass, Italian", "setting": "ryegrass, Italian; [6]", "result": 10}, {"measurement": "Plant response rating (scale of 0 to 100), Blackgrass", "setting": "blackgrass; Preemergence, 250 g ai/ha", "result": 98}, {"measurement": "Blackgrass plant response rating", "setting": "blackgrass; [7]", "result": 40}, {"measurement": "Blackgrass plant response rating", "setting": "blackgrass; [8]", "result": 80}, {"measurement": "Plant response rating, Blackgrass", "setting": "blackgrass; [9]", "result": 95}, {"measurement": "Plant response rating (scale of 0 to 100), Soybean", "setting": "soybean; Preemergence, 250 g ai/ha", "result": 98}, {"measurement": "Soybean plant response rating", "setting": "soybean; [7]", "result": 30}, {"measurement": "Soybean plant response rating", "setting": "soybean; [8]", "result": 40}, {"measurement": "Plant response rating, Soybean", "setting": "soybean; [9]", "result": 85}, {"measurement": "Plant response rating (scale of 0 to 100 where 0 is no effect and 100 is complete control), Chickweed", "setting": "chickweed; [3]", "result": 70}, {"measurement": "Chickweed plant response rating", "setting": "chickweed; [4]", "result": 70}, {"measurement": "Plant response rating, Chickweed", "setting": "chickweed; [5]", "result": 80}, {"measurement": "Plant response rating, Chickweed", "setting": "chickweed; [6]", "result": 70}, {"measurement": "Morningglory plant response rating", "setting": "morningglory; 125 g ai/ha, visual injury, 0 to 100 scale, approx. 10 days", "result": 100}, {"measurement": "Morningglory plant response rating", "setting": "morningglory; 500 g ai/ha, visual injury after approx. 10 days, 0 to 100 scale (0 no effect, 100 complete control)", "result": 100}, {"measurement": "Plant response rating (scale of 0 to 100 where 0 is no effect and 100 is complete control), Corn", "setting": "corn; [3]", "result": 5}, {"measurement": "Corn plant response rating", "setting": "corn; [4]", "result": 5}, {"measurement": "Plant response rating, Corn", "setting": "corn; [5]", "result": 50}, {"measurement": "Plant response rating, Corn", "setting": "corn; [6]", "result": 5}, {"measurement": "Plant response rating (scale of 0 to 100 where 0 is no effect and 100 is complete control), Pigweed", "setting": "pigweed; [3]", "result": 35}, {"measurement": "Pigweed plant response rating", "setting": "pigweed; [4]", "result": 65}, {"measurement": "Plant response rating, Pigweed", "setting": "pigweed; [5]", "result": 98}, {"measurement": "Plant response rating, Pigweed", "setting": "pigweed; [6]", "result": 90}, {"measurement": "Plant response rating (scale of 0 to 100 where 0 is no effect and 100 is complete control), Crabgrass, Large", "setting": "crabgrass, large; [3]", "result": 5}, {"measurement": "Crabgrass, Large plant response rating", "setting": "crabgrass, large; [4]", "result": 5}, {"measurement": "Plant response rating, Crabgrass, Large", "setting": "crabgrass, large; [5]", "result": 40}, {"measurement": "Plant response rating, Crabgrass, Large", "setting": "crabgrass, large; [6]", "result": 15}, {"measurement": "Barnyardgrass plant response rating", "setting": "barnyardgrass [1]; Postemergence, 500 g ai/ha, 0 to 100 scale (0 no effect, 100 complete control)", "result": 90}, {"measurement": "Barnyardgrass plant response rating", "setting": "barnyardgrass [1]; postemergence, 125 g ai/ha, about 10 days, visual rating on 0 to 100 scale (0 no effect, 100 complete control)", "result": 80}, {"measurement": "Plant response rating, Ducksalad", "setting": "ducksalad", "result": 90}, {"measurement": "Plant response rating (scale of 0 to 100), Barnyardgrass", "setting": "barnyardgrass [2]; Preemergence, 250 g ai/ha", "result": 100}, {"measurement": "Barnyardgrass plant response rating", "setting": "barnyardgrass [2]; preemergence, 31 g ai/ha, 13 to 15 days", "result": 55}, {"measurement": "Barnyardgrass plant response rating", "setting": "barnyardgrass [2]; [8]", "result": 95}, {"measurement": "Plant response rating, Barnyardgrass", "setting": "barnyardgrass [2]; [9]", "result": 100}, {"measurement": "Plant response rating (scale of 0 to 100), Lambsquarters", "setting": "lambsquarters; Preemergence, 250 g ai/ha", "result": 100}, {"measurement": "Lambsquarters plant response rating", "setting": "lambsquarters; [7]", "result": 98}, {"measurement": "Lambsquarters plant response rating", "setting": "lambsquarters; [8]", "result": 100}, {"measurement": "Plant response rating, Lambsquarters", "setting": "lambsquarters; [9]", "result": 100}, {"measurement": "Plant response rating (scale of 0 to 100), Johnsongrass", "setting": "johnsongrass; Preemergence, 250 g ai/ha", "result": 95}, {"measurement": "Johnsongrass plant response rating", "setting": "johnsongrass; [7]", "result": 20}, {"measurement": "Johnsongrass plant response rating", "setting": "johnsongrass; [8]", "result": 65}, {"measurement": "Plant response rating, Johnsongrass", "setting": "johnsongrass; [9]", "result": 85}]}]}
